From patent US20240247048A1 (EMORY UNIVERSITY, priority 2021, published 2024)

How the values were obtained:
[1] = system: C1498 acute myeloid leukemia cells; assay: survival of mice engrafted with C1498 acute myeloid leukemia; format: in vivo, mouse; set-up: percentage of survival: concentration or dose not given beside the values; conditions: for Median survival time / Percentage alive day 60: 1 x 10E6 C1498 i.v. on day 0, 10 ug peptide s.c. daily on days 6-12; for percentage of survival: FIG. 3, leukemia-bearing mice treated with peptide
Protocol: B6 (CD45.2, H-2K^b) mice were administered C1498 1×10^6/mouse through tail vein. […] Survival of the mice was observed daily. Data were pooled from 3 replicated experiments.
B6 (CD45.2, H-2K^b) mice were administered C1498 1×10^6/mouse through tail vein. […] Survival of the mice was observed daily. Survival of the mice were pooled from 3 replicated experiments and analyzed by log-rank test compared with the survival of mice treated with scrambled peptide.
B6 SJL (CD45.1, H-2K^b) mice were administered C1498 (CD45.2 H-2K^b) 1×10^6/mouse through tail vein. […] The mice were bled weekly from the submandibular vein, starting from day 6, prior to the administration of peptides. Antibodies to CD45.2 identified myeloid leukemia cells and antibodies to CD45.1 identified murine leukocytes of the host.
(§1) VIP-related peptides tested in silico for predicted binding affinities to human VPAC1 and VPAC2 (Creative Biolabs). Docking scores show predicted free energy change associated with peptide binding. Note that a greater negative score is predicted to be associated with higher binding affinity. Based upon an initial screen of 300 peptides for binding affinity to VPAC1 and screening a subset of 100 peptides for binding affinity to VPAC2, a select group of peptides were synthesized and tested for their ability to stimulate proliferation of luciferase+ mouse T cells in vitro. The lowest concentration of peptide that led to maximal luminescence is shown. Proliferation data represents the relative level of luminescence from quadruplicate wells containing 1×10E5 T cells/well in a 96 well tissue culture plate stimulated for 96 hours with plate-bound anti-CD3 antibodies. Confirmatory in vivo testing of select peptides was then performed based upon their ability to induce autologous anti-leukemia responses in C57Bl/6 mice that had been previously injected with 1×10E6 C1498 acute myeloid leukemia cells. Leukemia cells were injected on day 0, 10 ug peptide was injected s.c. daily on days 6-12. The predicted binding affinity to VPAC1 and/or VPAC2 was associated with enhanced activity in stimulating mouse T cell proliferation and anti-leukemia activity in mice.
To test the ability of the disclosed VIP-R antagonists to effect survival to acute myeloid leukemia survival, B6 (CD45.2, H-2K^b) mice were administered C1498 1×10^6/mouse through tail vein. […] Survival of the mice was observed daily.

[2] = system: luciferase+ mouse T cells; assay: proliferation of luciferase+ mouse T cells in vitro (plate-bound anti-CD3, luminescence); format: cell-based; conditions: 96 hours; for lowest concentration of peptide that led to maximal luminescence: luc+ T cell proliferation, plate-bound anti-CD3; for luc+ T cell proliferation: relative luminescence, quadruplicate wells, plate-bound anti-CD3, daily addition of peptide, at the concentration in brackets
Text: as §1

[3] = system: human T cells; assay: activation of healthy-donor human T cells (anti-CD3), marker expression by flow cytometry; format: cell-based; conditions: across multiple donors
Protocol: Mean value from ‘Activated’ group shown with dotted line (---) for comparison. Responses from same healthy donors are shown with same color dots. Error bars are computed as the standard error of the mean (SEM) from 6 healthy donor samples.
This study adopted an ex-vivo system using human T cells isolated from healthy donors to screen for novel VIP-R antagonist peptides. Human T cells were cultured over 6 or 24 hours with activation in the presence or absence of peptides and were assessed for percent CD69 surface expression by flow cytometry to measure the state of T cell activation. The activity of the peptides was determined by percent increase in CD69 expression relative to no peptide control. […] We also observed that amongst the donors, most were classified as average responders, with measured value for CD69 expression within the error bars while two others had measured values outside the error bars, one sample reflecting a super-responder (purple dots) and one sample reflecting a slow-responder (green dots) (FIGS. 10A and 10B). […]
Human T cell activation and expansion. […] Cells were counted using Trypan blue dye and phenotyped via flow cytometry on day 9. […]

Sequence | Median survival time [1] [days] | Percentage alive day 60 [1] [%] | lowest concentration of peptide that led to maximal luminescence [2] [µM] | luc+ T cell proliferation [2] | percentage of survival [1] [%] | activity compared among the three antagonists (CD69) [3]
HSDAVFINTKLDKLNTRLVSAQNYMKYR [SCRAM1, reference compound] | 28 | 0 |  |  |  | 
HSDAVFTDNYTRLRKQMAVKKYLNSILN [VIP, reference compound] | 30 | 0 | 0.1 | 77% + 13% |  | 
KKPRRPYTVNCTSLRKQIAVKKYLMLILN [ANT219] | 35 | 20 | 3 | 189% + 8% | 20 | 
KPRRPYADNCTRLRKQIAVNKKYLNSILN [ANT114] | 34 | 20 |  |  | 20 | 
KPRRPYADNYTRLRKQMAVNKYLNLILN [ANT058] | 35 | 30 |  |  | 30 | 
KPRRPYAVNCTSLRKQIAVKKYLMSILN [ANT203] | 34 | 25 | 3 | 185% + 8% | 25 | 
KPRRPYAVNCTSLRKQIAVNKYLNSILN [ANT202] |  |  | 3 | 171% + 8% |  | 
KPRRPYAVNYTRLRKQIAVKKYLMSILN [ANT105] |  |  | 3 | 121% + 6% |  | 
KPRRPYAVNYTRLRKQMAVNKYLMSILN [ANT107] | 38 | 30 |  |  | 20 | 
KPRRPYINTKLDKLNTRLVSAQNYMKYR [SCRAM2, reference compound] |  | 0 |  | 108.74% |  | 
KPRRPYTDNCTRLRKQMAVKKYLNSILN [ANT005] |  |  | 3 | 187% + 1% |  | 
KPRRPYTDNCTSLRKQIAVNKYLNLILN [ANT197] | 37 | 35 | 3 | 161% + 13% | 35 | 
KPRRPYTDNYTRLRKQMAVKKYLNSILN [VIPhyb, reference compound] | 34 | 5 | 1 | 197% + 38% | 5 | 
KPRRPYTSDYTRLRKQMAVKKYLNSILN [ANT300] | 47 | 33.30 | 0.3 | 216% + 20% |  | 
KPRRPYTVNYTSLRKQIAVKKYLMLILN [ANT195] | 38 | 40 | 3 | 161% + 23% | 40 | highest activity
